ChEMBL document CHEMBL4673231, “Novel isoniazid embedded triazole derivatives: Synthesis, antitubercular and antimicrobial activity evaluation” (Bioorg Med Chem Lett, 2020)
In brackets after ≈: the same amount, converted by molar mass. Activity calls are given as the source filed them. The calls are words filed in the database; no cut-off is given here.

Tests used:
Bacillus cereus = test: Antibacterial activity against Bacillus cereus assessed as diameter of inhibition zone at 1 mg/ml incubated for 24 hrs by agar well diffusion assay; type: functional; conditions: for zone of inhibition at 1000 µg/mL: read-out: DIZ
[1] = tested on: Salmonella enterica subsp. enterica serovar Abony; test: Antibacterial activity against Salmonella enterica subsp. enterica serovar Abony assessed as diameter of inhibition zone at 1 mg/ml incubated for 24 hrs by agar well diffusion assay; type: functional; conditions: for zone of inhibition at 1000 µg/mL: read-out: DIZ
Klebsiella aerogenes [2] = test: Antibacterial activity against Enterobacter aerogenes assessed as diameter of inhibition zone at 1 mg/ml incubated for 24 hrs by agar well diffusion assay; type: functional; conditions: for zone of inhibition at 1000 µg/mL: read-out: DIZ
Aspergillus niger = test: Antifungal activity against Aspergillus niger assessed as diameter of inhibition zone at 1 mg/ml incubated for 24 hrs by agar well diffusion assay; type: functional; conditions: for zone of inhibition at 1000 µg/mL: read-out: DIZ
Shigella boydii = test: Antibacterial activity against Shigella boydii assessed as diameter of inhibition zone at 1 mg/ml incubated for 24 hrs by agar well diffusion assay; type: functional; conditions: for zone of inhibition at 1000 µg/mL: read-out: DIZ
Salmonella typhi [3] = test: Antibacterial activity against Salmonella typhi assessed as diameter of inhibition zone at 1 mg/ml incubated for 24 hrs by agar well diffusion assay; type: functional, Salmonella enterica subsp. enterica serovar Typhi; conditions: for zone of inhibition at 1000 µg/mL: Salmonella enterica, read-out: DIZ; for diameter of the inhibition zone (DIZ): Salmonella enterica subsp. enterica serovar Typhi
Bacillus subtilis = test: Antibacterial activity against Bacillus subtilis assessed as diameter of inhibition zone at 1 mg/ml incubated for 24 hrs by agar well diffusion assay; type: functional; conditions: for zone of inhibition at 1000 µg/mL: read-out: DIZ
Escherichia coli = test: Antibacterial activity against Escherichia coli assessed as diameter of inhibition zone at 1 mg/ml incubated for 24 hrs by agar well diffusion assay; type: functional; conditions: for zone of inhibition at 1000 µg/mL: read-out: DIZ
[4] = tested on: Mycobacterium tuberculosis; test: Antimycobacterial activity against Mycobacterium tuberculosis H37Rv assessed as reduction in microbial growth incubated for 7 days by alamar blue assay; type: functional; conditions: 168 h, time 7 day
Pseudomonas aeruginosa = test: Antibacterial activity against Pseudomonas aeruginosa assessed as diameter of inhibition zone at 1 mg/ml incubated for 24 hrs by agar well diffusion assay; type: functional; conditions: for zone of inhibition at 1000 µg/mL: read-out: DIZ
Saccharomyces cerevisiae = test: Antifungal activity against Saccharomyces cerevisiae assessed as diameter of inhibition zone at 1 mg/ml incubated for 24 hrs by agar well diffusion assay; type: functional; conditions: for zone of inhibition at 1000 µg/mL: read-out: DIZ
Staphylococcus aureus [5] = test: Antibacterial activity against Staphylococcus aureus assessed as diameter of inhibition zone at 1 mg/ml incubated for 24 hrs by agar well diffusion assay; type: functional; conditions: for zone of inhibition at 1000 µg/mL: read-out: DIZ
[6] = Cytotoxicity against mouse RAW264.7 cells assessed as reduction in cell viability at 25 ug/ml incubated for 48 hrs by MTT assay; type: cell-based; conditions: at 25 µg/mL, read-out: INH
Staphylococcus aureus [7] = test: Antibacterial activity against Staphylococcus aureus ATCC 6538 by CLSI method; type: functional
Salmonella typhi [8] = test: Antibacterial activity against Salmonella typhi ATCC 9207 by CLSI method; type: functional, Salmonella enterica subsp. enterica serovar Typhi; conditions: Salmonella enterica
Klebsiella aerogenes [9] = test: Antibacterial activity against Enterobacter aerogenes ATCC 13048 by CLSI method; type: functional

Row | Compound | diameter of the inhibition zone (DIZ) (Bacillus cereus) | diameter of the inhibition zone (DIZ) [1] | diameter of the inhibition zone (DIZ) (Klebsiella aerogenes [2]) | zone of inhibition at 1000 µg/mL (Aspergillus niger) [mm] | diameter of the inhibition zone (DIZ) (Shigella boydii) | zone of inhibition at 1000 µg/mL (Salmonella typhi [3]) [mm] | diameter of the inhibition zone (DIZ) (Bacillus subtilis) | diameter of the inhibition zone (DIZ) (Escherichia coli) | MIC [4] [µg/mL] | zone of inhibition at 1000 µg/mL (Pseudomonas aeruginosa) [mm] | diameter of the inhibition zone (DIZ) (Staphylococcus aureus [5]) | cytotoxicity at 48 h, 25 ug/ml [6] [%] | zone of inhibition at 1000 µg/mL (Klebsiella aerogenes [2]) [mm] | zone of inhibition at 1000 µg/mL (Escherichia coli) [mm] | diameter of the inhibition zone (DIZ) (Saccharomyces cerevisiae) | diameter of the inhibition zone (DIZ) (Aspergillus niger) | further results
1 | O=C(N/N=C/c1cc([N+](=O)[O-])ccc1OCc1cn(-c2ccc(Cl)cc2)nn1)c1ccncc1 | inactive | inactive | inactive | 16 | inactive | 13 | inactive | inactive | 25 | 15 | inactive | – | – | – | – | – | zone of inhibition at 1000 µg/mL (Saccharomyces cerevisiae): 10 mm
2 | CC[C@@H](CO)NCCN[C@@H](CC)CO [ETHAMBUTOL] | – | – | – | – | – | – | – | – | 3.12 | – | – | – | – | – | – | – | –
3 | NNC(=O)c1ccncc1 [ISONIAZID] | – | – | – | – | – | – | – | – | 0.1 | – | – | – | – | – | – | – | –
4 | COc1cccc(-n2cc(COc3ccc([N+](=O)[O-])cc3/C=N/NC(=O)c3ccncc3)nn2)c1 | inactive | – | – | 13 | inactive | 12 | – | – | 0.78 | 10 | inactive | 23.9 | 6 | 9 | inactive | – | zone of inhibition at 1000 µg/mL [1]: 8 mm; zone of inhibition at 1000 µg/mL (Bacillus subtilis): 12 mm
5 | O=C(O)c1cn(C2CC2)c2cc(N3CCNCC3)c(F)cc2c1=O [CIPROFLOXACIN] | – | – | – | – | – | – | – | – | 1.56 | – | – | – | – | – | – | – | –
6 | Cc1cccc(-n2cc(COc3ccc([N+](=O)[O-])cc3/C=N/NC(=O)c3ccncc3)nn2)c1 | – | inactive | – | 8 | inactive | 10 | – | inactive | 12.5 | 12 | – | 23.2 | 8 | – | inactive | – | zone of inhibition at 1000 µg/mL (Bacillus cereus): 13 mm; zone of inhibition at 1000 µg/mL (Bacillus subtilis): 10 mm; zone of inhibition at 1000 µg/mL (Staphylococcus aureus [5]): 13 mm
7 | Cc1cc(C)c(-n2cc(COc3ccc([N+](=O)[O-])cc3/C=N/NC(=O)c3ccncc3)nn2)c(C)c1 | inactive | inactive | inactive | – | inactive | 10 | inactive | inactive | 0.78 | – | inactive | 27.7 | – | – | inactive | inactive | diameter of the inhibition zone (DIZ) (Pseudomonas aeruginosa): inactive
8 | O=C(N/N=C/c1cc([N+](=O)[O-])ccc1OCc1cn(-c2cccc([N+](=O)[O-])c2)nn1)c1ccncc1 | inactive | inactive | inactive | – | inactive | – | inactive | inactive | 0.78 | – | inactive | 22.7 | – | – | inactive | inactive | diameter of the inhibition zone (DIZ) (Salmonella typhi [3]): inactive; diameter of the inhibition zone (DIZ) (Pseudomonas aeruginosa): inactive
9 | Cc1ccc(-n2cc(COc3ccc([N+](=O)[O-])cc3/C=N/NC(=O)c3ccncc3)nn2)c(C)c1 | inactive | inactive | inactive | – | inactive | 11 | inactive | inactive | 3.12 | – | inactive | 17.6 | – | – | inactive | inactive | diameter of the inhibition zone (DIZ) (Pseudomonas aeruginosa): inactive
10 | CN(C)[C@@H]1C(O)=C(C(N)=O)C(=O)[C@@]2(O)C(O)=C3C(=O)c4c(O)cccc4[C@@](C)(O)[C@H]3C[C@@H]12 [TETRACYCLINE] | – | – | – | – | – | 28 | – | – | – | 28 | – | – | 24 | 29 | – | – | zone of inhibition at 1000 µg/mL (Bacillus cereus): 32 mm; zone of inhibition at 1000 µg/mL [1]: 27 mm; MIC (Staphylococcus aureus [7]): 20 µg/mL (≈ 45 µM); zone of inhibition at 1000 µg/mL (Shigella boydii): 29 mm; zone of inhibition at 1000 µg/mL (Bacillus subtilis): 18 mm; MIC (Salmonella typhi [8]): 20 µg/mL (≈ 45 µM); MIC (Klebsiella aerogenes [9]): 15 µg/mL (≈ 33.8 µM); zone of inhibition at 1000 µg/mL (Staphylococcus aureus [5]): 22 mm
11 | OC(Cn1cncn1)(Cn1cncn1)c1ccc(F)cc1F [FLUCONAZOLE] | – | – | – | 30 | – | – | – | – | – | – | – | – | – | – | – | – | zone of inhibition at 1000 µg/mL (Saccharomyces cerevisiae): 30 mm
12 | CO[C@H]1/C=C/O[C@@]2(C)Oc3c(C)c(O)c4c(O)c(c(/C=N/N5CCN(C)CC5)c(O)c4c3C2=O)NC(=O)/C(C)=C\C=C\[C@H](C)[C@H](O)[C@@H](C)[C@@H](O)[C@@H](C)[C@H](OC(C)=O)[C@@H]1C [RIFAMPIN] | – | – | – | – | – | – | – | – | 0.2 | – | – | – | – | – | – | – | –
13 | O=C(N/N=C/c1cc([N+](=O)[O-])ccc1OCc1cn(-c2ccccc2)nn1)c1ccncc1 | inactive | inactive | – | – | inactive | – | inactive | – | 0.78 | 13 | inactive | 25.7 | 14 | 12 | – | inactive | diameter of the inhibition zone (DIZ) (Salmonella typhi [3]): inactive; zone of inhibition at 1000 µg/mL (Saccharomyces cerevisiae): 10 mm
14 | O=C(N/N=C/c1cc([N+](=O)[O-])ccc1OCc1cn(-c2ccc(Br)cc2)nn1)c1ccncc1 | inactive | inactive | – | – | inactive | 10 | inactive | inactive | 12.5 | – | inactive | 19 | 12 | – | – | inactive | diameter of the inhibition zone (DIZ) (Pseudomonas aeruginosa): inactive; zone of inhibition at 1000 µg/mL (Saccharomyces cerevisiae): 12 mm
15 | O=C(N/N=C/c1cc([N+](=O)[O-])ccc1OCc1cn(-c2ccccc2F)nn1)c1ccncc1 | inactive | inactive | – | – | inactive | 10 | – | inactive | 12.5 | 13 | inactive | 19.3 | 10 | – | inactive | inactive | zone of inhibition at 1000 µg/mL (Bacillus subtilis): 11 mm
16 | CCc1ccc(-n2cc(COc3ccc([N+](=O)[O-])cc3/C=N/NC(=O)c3ccncc3)nn2)cc1 | inactive | inactive | inactive | 10 | inactive | – | inactive | – | 0.78 | 10 | inactive | 26.9 | – | 10 | inactive | – | diameter of the inhibition zone (DIZ) (Salmonella typhi [3]): inactive
17 | Cc1ccc([N+](=O)[O-])cc1-n1cc(COc2ccc([N+](=O)[O-])cc2/C=N/NC(=O)c2ccncc2)nn1 | inactive | inactive | inactive | 13 | inactive | – | inactive | – | 0.78 | 9 | inactive | 23.9 | – | 12 | inactive | – | diameter of the inhibition zone (DIZ) (Salmonella typhi [3]): inactive
18 | COc1ccc(-n2cc(COc3ccc([N+](=O)[O-])cc3/C=N/NC(=O)c3ccncc3)nn2)cc1 | – | – | – | 11 | – | 12 | – | – | > 25 | 12 | – | – | 14 | 12 | – | – | zone of inhibition at 1000 µg/mL (Bacillus cereus): 12 mm; zone of inhibition at 1000 µg/mL [1]: 13 mm; MIC (Staphylococcus aureus [7]): 180 µg/mL (≈ 380 µM); zone of inhibition at 1000 µg/mL (Shigella boydii): 14 mm; zone of inhibition at 1000 µg/mL (Bacillus subtilis): 6 mm; MIC (Salmonella typhi [8]): 340 µg/mL (≈ 718 µM); MIC (Klebsiella aerogenes [9]): 150 µg/mL (≈ 317 µM); zone of inhibition at 1000 µg/mL (Staphylococcus aureus [5]): 10 mm
